# From patent publication US20150189876A1, “CROP ENHANCEMENT COMPOSITIONS” (Syngenta Participations AG, priority 2012, published 2015)
# Read-outs that look alike come from different tables or passages of the source.
# Tests used:
# [1] = tested on: Tetranychus urticae; assay: Leaf disc spray test, 24-well plate, mortality after 6 days (Table 2.2); assay type: in vivo
# Procedure: 2.3 Tetranychus urticae (Two-Spotted Spider Mite)
# Bean leaf discs were placed on agar in 24-well microtiter plates sprayed with test solutions. After drying, the leaf discs were infested with a mite population of mixed ages. After an incubation period of 6 days, samples were checked for larval mortality, and adult mortality.
# [2] = tested on: Myzus persicae; assay: Leaf disc spray test, 24-well plate, mortality after 6 days (Table 2.3); assay type: in vivo
# Procedure: 2.2 Myzus persicae (Green Peach Aphid)
# Sunflower leaf discs were placed on agar in a 24-well microtiter plate and sprayed with test solutions. After drying, the leaf discs were infested with an aphid population of mixed ages. After an incubation period of 6 days, samples were checked for mortality.
# [3] = tested on: Fusarium culmorum; Aspergillus parasiticus; Pyrenophora teres; assay: In vitro antifungal checkerboard test, overall statement on Tables 1.1 to 1.5; assay type: cell-based
# Procedure: (§1) In vitro antifungal activity of fungicides in combination with a compound of formula (II) was evaluated in 96 well-microtiter plate system using the checkerboard method (Vitale, R. G, Afeltra, J., and Dannaoui, E. 2005: Methods in Molecular Medicine, Vol. 118, Antifungal Agents: Methods and Protocols p. 143-152). Active ingredients were two-fold serially diluted in DMSO and mixed with double strength Potato Dextrose Broth or Alkyl Ester agar (AE medium, Miguez, M., Reeve, C., Wood, P. M. and Hollomon, D. W. (2004), Alternative oxidase reduces the sensitivity of Mycosphaerella graminicola to QOI fungicides. Pest. Manag. Sci., 60: 3-7) before filled into wells according to the checkerboard format. Each dilution well containing was inoculated with fungal spore suspension to receive a final concentration of 1×10^4 spores/ml per well. Wells of last column containing only medium and spore suspension were included as control. Three replicated microtiter plates were used in each test system. Fungal growth in each well of the micro-plates was assessed spectrophotometrically at OD450 nm (16-scan point spectrophotometer, Tecan) after inoculation [OD(0 h)=background value] and after an incubation period of 72 h [OD(72 h)] at 25° C. in the dark. Fungal growth was described as increase in OD450 nm during the time interval from 0 h to 72 h [OD(72 h)-OD(0 h)]. Fungal growth in each well of the micro-plates was assessed spectrophotometrically at OD450 nm (16-scan point spectrophotometer, Tecan) after inoculation and after an incubation period of 3-6 days at 25° C. in the dark. Fungal growth was described as increase in OD450 nm during incubation period.
# [4] = tested on: Fusarium culmorum; assay: In vitro antifungal checkerboard test, fungal growth by OD450 in 96-well microtiter plates; assay type: cell-based
# Procedure: as §1
# [5] = tested on: Aspergillus parasiticus; assay: as above; assay type: cell-based; conditions: for Azoxystrobin Inhibition (%): Azoxystrobin alone
# Procedure: as §1
# [6] = tested on: Pyrenophora teres; assay: as above; assay type: cell-based; conditions: for Sedaxane Inhibition (%): Sedaxane alone
# Procedure: as §1
# [7] = tested on: Heliothis virescens; assay: Egg and larval mortality on artificial diet, 24-well plate, 4 days; assay type: in vivo
# Procedure: 2.1 Heliothis virescens (Tobacco Budworm)
# Eggs (0-24 h old) were placed in a 24-well microtiter plate on artificial diet and treated with test solutions by pipetting. After an incubation period of 4 days, samples were checked for egg mortality and larval mortality.
# [8] = Formula (II) 0.000003 ppm alone
# [9] = Compound II alone, read-out: Compound II Inhibition (%)
# [10] = Thiabendazole alone, read-out: Thiabendazole Inhibition (%)
# [11] = Prothioconazole alone, read-out: Prothioconazole Inhibition (%)
# [12] = Tebuconazole alone, read-out: Tebuconazole Inhibition (%)
molecule,measurement,setting,value
CC1=C[C@H](O/C=C2/C(=O)NC3c4ccccc4CC23)OC1=O (some centres unmarked) [Compound II],% control (average of 2 reps),[1]; [8],0%
same,% control (average of 2 reps),[1]; Formula (II) 0.0003 ppm alone,0%
same,% control (average of 2 reps),[1]; Formula (II) 0.03 ppm alone,0%
same,% control (average of 2 reps),[1]; Formula (II) 1 ppm alone,0%
same,antagonism of the activity of the insecticides,[1]; mixtures of Table 2.2,did not antagonise the activity of any of the insecticides
same,% control (average of 2 reps),[2]; [8],0%
same,% control (average of 2 reps),[2]; Formula (II) 0.0003 ppm alone,0%
same,% control (average of 2 reps),[2]; Formula (II) 0.03 ppm alone,0%
same,% control (average of 2 reps),[2]; Formula (II) 1 ppm alone,0%
same,antagonism of the activity of the insecticides,[2]; mixtures of Table 2.3,did not antagonise the activity of any of the insecticides
same,synergistic effect on the activity of fungicides,[3]; at some rates,provides a synergistic effect on the activity of fungicides at some rates
same,fungicidal activity of the compound of formula (II) alone,"[3]; in general, Tables 1.1 to 1.5","did not cause any, or only very low levels of fungicidal activity"
same,antagonism of the activity of the fungicides tested,"[3]; in general, mixtures of Tables 1.1 to 1.5",did not antagonise the activity of any of the fungicides tested
same,inhibition at 0.0625 ppm,"[4]; Compound II alone, 0.0625 ppm",1.8%
same,inhibition at 0.125 ppm,"[4]; Compound II alone, 0.125 ppm",6.5%
same,inhibition at 0.25 ppm,"[4]; Compound II alone, 0.25 ppm",3.2%
same,inhibition at 0.5 ppm,"[4]; Compound II alone, 0.5 ppm",1.2%
same,inhibition at 1 ppm,"[4]; Compound II alone, 1 ppm",0%
same,inhibition at 2 ppm,"[4]; Compound II alone, 2 ppm",2.5%
same,inhibition at 4 ppm,[4]; [9],1.3%
same,inhibition at 8 ppm,[4]; [9],0%
same,inhibition at 16 ppm,"[4]; Compound II alone, 16 ppm",0%
same,inhibition at 32 ppm,"[4]; Compound II alone, 32 ppm",0%
same,inhibition at 0.125 ppm,"[5]; Aspergillus parasiticus, Compound II alone, 0.125 ppm",8.7%
same,inhibition at 0.25 ppm,"[5]; Aspergillus parasiticus, Compound II alone, 0.25 ppm",11.3%
same,inhibition at 0.5 ppm,"[5]; Aspergillus parasiticus, Compound II alone, 0.5 ppm",9.3%
same,inhibition at 1 ppm,"[5]; Aspergillus parasiticus, Compound II alone, 1 ppm",9.6%
same,inhibition at 2 ppm,"[5]; Aspergillus parasiticus, Compound II alone, 2 ppm",0.5%
same,inhibition at 4 ppm,"[5]; Aspergillus parasiticus, Compound II alone, 4 ppm",5.4%
same,inhibition at 8 ppm,"[5]; Aspergillus parasiticus, Compound II alone, 8 ppm",20.5%
same,inhibition at 16 ppm,"[5]; Aspergillus parasiticus, Compound II alone, 16 ppm",22.1%
same,inhibition at 32 ppm,"[5]; Aspergillus parasiticus, Compound II alone, 32 ppm",2%
same,inhibition at 64 ppm,"[5]; Aspergillus parasiticus, Compound II alone, 64 ppm",11.3%
same,inhibition at 0.25 ppm,"[6]; Pyrenophora teres, Compound II alone, 0.25 ppm",0%
same,inhibition at 0.5 ppm,"[6]; Pyrenophora teres, Compound II alone, 0.5 ppm",0%
same,inhibition at 1 ppm,"[6]; Pyrenophora teres, Compound II alone, 1 ppm",0%
same,inhibition at 2 ppm,"[6]; Pyrenophora teres, Compound II alone, 2 ppm",0%
same,inhibition at 4 ppm,"[6]; Pyrenophora teres, Compound II alone, 4 ppm",0%
same,inhibition at 8 ppm,"[6]; Pyrenophora teres, Compound II alone, 8 ppm",0%
same,inhibition at 16 ppm,"[6]; Pyrenophora teres, Compound II alone, 16 ppm",0%
same,inhibition at 32 ppm,"[6]; Pyrenophora teres, Compound II alone, 32 ppm",0%
same,inhibition at 64 ppm,"[6]; Pyrenophora teres, Compound II alone, 64 ppm",0%
same,inhibition at 128 ppm,"[6]; Pyrenophora teres, Compound II alone, 128 ppm",3.9%
same,% control (average of 2 reps),[7]; [8],0%
same,% control (average of 2 reps),[7]; Formula (II) 0.0003 ppm alone,0%
same,% control (average of 2 reps),[7]; Formula (II) 0.03 ppm alone,0%
same,% control (average of 2 reps),[7]; Formula (II) 1 ppm alone,0%
same,antagonism of the activity of the insecticides,[7]; mixtures of Table 2.1,did not antagonise the activity of any of the insecticides
"Cn1cc(C(=O)Nc2ccccc2C2CC2C2CC2)c(C(F)F)n1 (centres unmarked) [Sedaxane, sedaxane, reference compound]",Sedaxane Inhibition (%),[6]; 4 ppm,62.5%
same,Sedaxane Inhibition (%),[6]; 8 ppm,81.2%
same,Sedaxane Inhibition (%),[6]; 16 ppm,82.1%
same,Sedaxane Inhibition (%),[6]; 32 ppm,85.9%
same,Sedaxane Inhibition (%),[6]; 64 ppm,88.1%
"CC(c1ccc(C(F)(F)F)nc1)S(C)(=O)=NC#N (centres unmarked) [Sulfoxaflor, sulfoxaflor, reference compound]",% control (average of 2 reps),[2]; Sulfoxaflor 0.8 ppm alone,100%
abamectin [reference compound],% control (average of 2 reps),[1]; Abamectin 0.2 ppm alone,100%
same,% control (average of 2 reps),[7]; Abamectin 3 ppm alone,95%
"c1ccc2[nH]c(-c3cscn3)nc2c1 [Thiabendazole, thiabendazole, reference compound]",inhibition at 64 ppm,[4]; [10],98.3%
same,inhibition at 128 ppm,[4]; [10],99.4%
"CN/C(=N\[N+](=O)[O-])NCc1cnc(Cl)s1 [Clothianidin, clothianidin, reference compound]",% control (average of 2 reps),[2]; Clothianidin 3 ppm alone,100%
same,% control (average of 2 reps),[7]; Clothianidin 50 ppm alone,100%
"CO/C=C(/C(=O)OC)c1ccccc1Oc1cc(Oc2ccccc2C#N)ncn1 [Azoxystrobin, azoxystrobin, reference compound]",Azoxystrobin Inhibition (%),[5]; 8 ppm,82.8%
same,Azoxystrobin Inhibition (%),[5]; 16 ppm,84.5%
same,Azoxystrobin Inhibition (%),[5]; 32 ppm,78.5%
same,Azoxystrobin Inhibition (%),[5]; 64 ppm,60.8%
"OC(Cc1ccccc1Cl)(Cn1nc[nH]c1=S)C1(Cl)CC1 (centres unmarked) [Prothioconazole, prothioconazole, reference compound]",inhibition at 64 ppm,[4]; [11],97.3%
same,inhibition at 128 ppm,[4]; [11],95%
"CNC(=O)c1cc(Cl)cc(C)c1NC(=O)c1cc(Br)nn1-c1ncccc1Cl [Chlorantraniliprole, chlorantraniliprole, reference compound]",% control (average of 2 reps),[1]; Chlorantraniliprole 400 ppm alone,95%
same,% control (average of 2 reps),[7]; Chlorantraniliprole 0.4 ppm alone,90%
"O=[N+]([O-])NC1=NCCN1Cc1ccc(Cl)nc1 [Imidacloprid, imidacloprid, reference compound]",% control (average of 2 reps),[2]; Imidacloprid 1.6 ppm alone,100%
same,% control (average of 2 reps),[7]; Imidacloprid 200 ppm alone,100%
"CC(C)(C)C(O)(CCc1ccc(Cl)cc1)Cn1cncn1 (centres unmarked) [Tebuconazole, tebuconazole, reference compound]",inhibition at 4 ppm,[4]; [12],97.1%
same,inhibition at 8 ppm,[4]; [12],90.1%
"CN1COCN(Cc2cnc(Cl)s2)/C1=N\[N+](=O)[O-] [Thiamethoxam, thiamethoxam, reference compound]",% control (average of 2 reps),[2]; Thiamethoxam 3 ppm alone,100%
"Cc1c(F)c(F)c(COC(=O)[C@@H]2[C@H](/C=C(\Cl)C(F)(F)F)C2(C)C)c(F)c1F (racemic) [Tefluthrin, tefluthrin, reference compound]",% control (average of 2 reps),[1]; Tefluthrin 100 ppm alone,90%
same,% control (average of 2 reps),[7]; Tefluthrin 100 ppm alone,95%
"CNC(=O)c1cc(C#N)cc(C)c1NC(=O)c1cc(Br)nn1-c1ncccc1Cl [Cyantraniliprole, cyantraniliprole, reference compound]",% control (average of 2 reps),[1]; Cyantraniliprole 100 ppm alone,95%
same,% control (average of 2 reps),[7]; Cyantraniliprole 0.8 ppm alone,100%
